Data reported in US20090163696A1, “METHOD FOR PREPARING LYSOBACTIN DERIVATIVES” (priority 2006, published 2009).
*1 amine or outer side, *2 acyl side, *3 side chain or, on linkers, in order; H or OH if unused. Where a SMILES comes first, the peptide text is derived from it. Bridges are numbered along the chain shown (N, C = ends). [ ]: non-standard residue; d: D form. ξ: configuration not given here. Phe(3R-OH) = O=C([C@@H](N[*:1])[C@H](O[*:3])c1ccccc1)[*:2]; Asn(3S-OH) = NC(=O)[C@@H](O)[C@H](N)C(=O)O; Leu(3R-OH) = CC(C)[C@@H](O)[C@H](N)C(=O)O; aThr = C[C@H](O)[C@H](N)C(=O)O; ξS = NC(CO)C(=O)O

Tested on: Staphylococcus aureus 133, Entercococcus faecalis ICB27159 and Streptococcus pneumoniae G9a
Experiment: Determination of the minimum inhibitory concentration (MIC), liquid dilution test
Format: cell-based
Conditions: lysobactin prepared by complete synthesis compared with fermented lysobactin
Method: The in vitro effect of the compounds of the invention can be shown in the following assay: Determination of the Minimum Inhibitory Concentration (MIC): The MIC is determined in the liquid dilution test in accordance with the NCCLS guidelines. Overnight cultures of Staphylococcus aureus 133, Entercococcus faecalis ICB27159 and Streptococcus pneumoniae G9a are incubated with the described test substances in a 1:2 dilution series. The MIC determination is carried out with a cell count of 10^5 microbes per ml in Isosensitest medium (Difco, Irvine/USA), with the exception of S. pneumoniae, which is tested in BHI broth (Difco, Irvine/USA) with 10% bovine serum at a cell count of 10^6 microbes per ml. The cultures are incubated at 37° C. for 18-24 hours, S. pneumoniae in the presence of 10% CO2. The MIC is defined as the lowest concentration of each substance at which no visible bacterial growth occurs any longer. The MIC values are reported in μg/ml.

physiological activity (MIC): No significant differences
SMILES: CC[C@H](C)[C@@H]1NC(=O)[C@@H](CCCNC(=N)N)NC(=O)[C@H](CC(C)C)NC(=O)[C@H]([C@H](O)C(C)C)NC(=O)[C@@H](NC(=O)[C@H](CC(C)C)NC(=O)[C@H](N)CC(C)C)[C@@H](c2ccccc2)OC(=O)C(CO)NC(=O)[C@H]([C@H](O)C(N)=O)NC(=O)CNC(=O)[C@H]([C@H](C)O)NC1=O (stereo partly drawn) [lysobactin, Lysobactin Bistrifluoroacetate] (H-[dL]L[Phe(3R-OH)][Leu(3R-OH)]L[dR]I[aThr]G[Asn(3S-OH)][ξS]; ester 3-C)
